# Measured values: US12403132B2, “Methods of treating bone marrow failure syndromes and compositions for use in the same” (The Board of Trustees of the Leland Stanford Junior …, priority 2020, dated 2025)
# Legend:
# CD235+ erythroblasts = test: CD235+ erythroblast differentiation of CD34+ HSPCs from DBA patient bone marrow; format: cell-based, human; details: DBA patient samples, 5 μM SD208
# Description: FIG. 8. NLK inhibition increases expansion of erythroid progenitors from human and murine models of DBA. Human cord blood CD34+ progenitors were transduced with lentivirus co-expressing GFP with shRNA against luciferase (shLuc), RPS19 (shRPS19) or RPL11 (shRPL11). After 36 hours cells GFP+ cells were differentiated in erythroid media in the presence or absence of 5 μM SD208 for 15 days. Cells were counted and assessed for cell surface expression of CD235. (a) The percentage of CD235+ cells was multiplied by the cell count and values were compared as a percentage of untreated controls. (b) Normalizing values relative to untreated RPS19-insufficiency progenitors facilitates direct comparison of erythropoiesis between untreated and SD208-treated cultures. (c) Approximately 3000 cells were removed from differentiating treatments at day 6 and NLK activity was assessed. […] Values were expressed as a percentage relative to untreated controls (e) and directly comparing the effect of SD208 on erythropoiesis in ribosomal-insufficiency by expressing values relative to untreated ribosome-insufficient cultures (f). […] After counting the total cell population, the ratio of CD235+ erythroblasts was determined by flow cytometry and number of CD235+ erythroblasts calculated. This was expressed as a percentage of the average number of erythroid cells present in untreated healthy controls. […]
# [1] = system: BFU-E erythroid and CFU-GM myeloid colonies; test: Colony assays in methylcellulose (BFU-E, CFU-GM); format: cell-based, human; details: metformin
# Description: FIG. 9. Metformin improves expansion of CD235+ erythroblasts and BFU-E erythroid colony formation in human RPS19- and RPL11-insufficiency from CB CD34+ progenitors. (Panel A). CD34+ HSPCs were transduced with shRNA against control (shLuc), RPS19 (shRPS19) or RPL11 (shRPL11) and after sorting, were differentiated for 14 days in the presence or absence of 50 mM metformin. Cells were counted and the percentage expressing CD235+ erythroid (left) and CD11b+ myeloid (right) was determined by flow cytometry. Obtained values were multiplied to give an overall number that was normalized to the untreated control (grey columns). Values are presented as a percentage of the untreated control. (Panel B) Direct comparison between metformin treated and untreated cultures is facilitated by normalizing the metformin-treated values to the untreated values in control, RPS19- and RPL11-insufficient groups. Values are expressed as a fold induction relative to untreated. (Panel C) Transduced and sorted CD34+ progenitors were cultured in methylcellulose in the presence or absence of metformin for 16 days and BFU-E erythroid (left) and CFU-GM myeloid (right) colonies scored. Values are represented as the percentage of colonies induced in untreated controls (grey columns). (Panel D). To directly compare the effect of metformin in each group, metformin-treated cultures were normalized to untreated cultures and are expressed as a fold induction of the untreated control. (Panel E) Representative images of BFU-E colonies at day 14.Scale bar=[…]. […] Statistics: two-tailed Student's t test, significant *P<0.05
# Sorted hematopoietic cells were seeded in methylcellulose medium containing IL-3, stem cell factor, granulocyte macrophage colony-stimulating factor, and erythropoietin (H4434; […] Technologies) in triplicate, with 1000 cells per plate. Erythroid (burst-forming unit erythroid) and myeloid (colony-forming unit, granulocyte-macrophage) colonies were counted 14-18 days later. In some cases, 3000 (shRPL11) or 5000 (shRPS19+TGFβ) cells per plate were added to ensure enough colonies for robust statistical analysis.
# Sorted HSPCs were seeded in cytokine-containing methylcellulose medium (H4434; […] Technologies) in triplicate, with 1000 cells per plate. Erythroid (burst-forming unit erythroid) and myeloid (colony-forming unit, granulocyte-macrophage) colonies were counted 14-18 days later.
structure (smiles),measurement,setting,value
Fc1ccc(Cl)cc1-c1nc(Nc2ccncc2)c2nccnc2n1 [SD208],mean increase in erythroid expansion,CD235+ erythroblasts,2.11 fold
CN(C)C(=N)N=C(N)N [metformin],fold increase of BFU-E colonies,[1]; RPL11-insufficiency,2.2 fold
same,"BFU-E erythroid colonies, % of vector control (shLuc)","[1]; RPL11-insufficiency, 8.2% untreated",14.3%
same,fold increase of BFU-E colonies,[1]; RPS19-insufficiency,2.9 fold
same,"BFU-E erythroid colonies, % of vector control (shLuc)","[1]; RPS19-insufficiency, 7.7% untreated",16.3%
same,size of BFU-E colonies,[1]; RPS19-insufficient progenitors,only modestly improve
same,effect on CFU-GM colonies,[1],did not affect
